Values quoted from earlier work, collected in patent publication US8584539B2, “Delivery device for dispensing pharmaceutical dosage forms into dissolution testing apparatus” (Rohm and Haas Company, priority 2010, dated 2013).
Where two headings read alike, the source gives them in different places.

solubility (low pH of the stomach): essentially insoluble
solubility (near neutral conditions of the upper GI): soluble
SMILES: O=C(O)Cc1ccccc1Nc1c(Cl)cccc1Cl [diclofenac sodium]
